Test results published in patent US20260356819A1, “OXOISOINDOLINYL-SUBSTITUTED […] DERIVATIVE AND USE THEREOF” (GLUETACS THERAPEUTICS (SHANGHAI) CO., LTD., priority 2023, published 2026).

Key:
Assay type in all cases: cell-based
Settings in all cases: compounds at 50 nM and 500 nM
[1] = target: T1, CK1α (Homo sapiens, UniProt P48729+Q96SW2); assay: Western blot degradation of CK1α in hPBMCs (24 h)
T1 construct: The supernatant was aspirated as the extracted total cell protein; endogenous in cells; host or cells: human peripheral blood mononuclear cells (hPBMCs)
T1 sequence (P48729 whole entry): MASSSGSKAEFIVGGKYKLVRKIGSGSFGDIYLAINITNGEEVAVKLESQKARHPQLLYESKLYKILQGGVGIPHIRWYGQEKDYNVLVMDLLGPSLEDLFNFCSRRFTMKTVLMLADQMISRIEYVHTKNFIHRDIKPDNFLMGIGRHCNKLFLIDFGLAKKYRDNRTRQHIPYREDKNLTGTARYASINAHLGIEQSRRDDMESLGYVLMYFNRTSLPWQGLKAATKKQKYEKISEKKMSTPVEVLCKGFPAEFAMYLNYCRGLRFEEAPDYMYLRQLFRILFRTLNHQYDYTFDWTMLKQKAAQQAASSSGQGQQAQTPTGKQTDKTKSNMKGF
T1 sequence (Q96SW2 whole entry): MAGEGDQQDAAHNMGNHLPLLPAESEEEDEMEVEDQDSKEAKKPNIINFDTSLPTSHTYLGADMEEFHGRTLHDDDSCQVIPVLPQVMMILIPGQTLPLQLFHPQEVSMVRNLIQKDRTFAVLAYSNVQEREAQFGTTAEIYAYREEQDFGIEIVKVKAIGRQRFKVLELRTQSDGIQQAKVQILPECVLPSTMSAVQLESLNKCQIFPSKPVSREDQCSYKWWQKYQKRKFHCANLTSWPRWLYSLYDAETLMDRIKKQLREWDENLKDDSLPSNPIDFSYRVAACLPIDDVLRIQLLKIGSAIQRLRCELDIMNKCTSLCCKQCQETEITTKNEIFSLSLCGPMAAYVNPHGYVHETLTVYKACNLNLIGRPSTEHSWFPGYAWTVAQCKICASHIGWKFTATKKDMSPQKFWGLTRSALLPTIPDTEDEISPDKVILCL
T1 sequence (Q16531 whole entry partner): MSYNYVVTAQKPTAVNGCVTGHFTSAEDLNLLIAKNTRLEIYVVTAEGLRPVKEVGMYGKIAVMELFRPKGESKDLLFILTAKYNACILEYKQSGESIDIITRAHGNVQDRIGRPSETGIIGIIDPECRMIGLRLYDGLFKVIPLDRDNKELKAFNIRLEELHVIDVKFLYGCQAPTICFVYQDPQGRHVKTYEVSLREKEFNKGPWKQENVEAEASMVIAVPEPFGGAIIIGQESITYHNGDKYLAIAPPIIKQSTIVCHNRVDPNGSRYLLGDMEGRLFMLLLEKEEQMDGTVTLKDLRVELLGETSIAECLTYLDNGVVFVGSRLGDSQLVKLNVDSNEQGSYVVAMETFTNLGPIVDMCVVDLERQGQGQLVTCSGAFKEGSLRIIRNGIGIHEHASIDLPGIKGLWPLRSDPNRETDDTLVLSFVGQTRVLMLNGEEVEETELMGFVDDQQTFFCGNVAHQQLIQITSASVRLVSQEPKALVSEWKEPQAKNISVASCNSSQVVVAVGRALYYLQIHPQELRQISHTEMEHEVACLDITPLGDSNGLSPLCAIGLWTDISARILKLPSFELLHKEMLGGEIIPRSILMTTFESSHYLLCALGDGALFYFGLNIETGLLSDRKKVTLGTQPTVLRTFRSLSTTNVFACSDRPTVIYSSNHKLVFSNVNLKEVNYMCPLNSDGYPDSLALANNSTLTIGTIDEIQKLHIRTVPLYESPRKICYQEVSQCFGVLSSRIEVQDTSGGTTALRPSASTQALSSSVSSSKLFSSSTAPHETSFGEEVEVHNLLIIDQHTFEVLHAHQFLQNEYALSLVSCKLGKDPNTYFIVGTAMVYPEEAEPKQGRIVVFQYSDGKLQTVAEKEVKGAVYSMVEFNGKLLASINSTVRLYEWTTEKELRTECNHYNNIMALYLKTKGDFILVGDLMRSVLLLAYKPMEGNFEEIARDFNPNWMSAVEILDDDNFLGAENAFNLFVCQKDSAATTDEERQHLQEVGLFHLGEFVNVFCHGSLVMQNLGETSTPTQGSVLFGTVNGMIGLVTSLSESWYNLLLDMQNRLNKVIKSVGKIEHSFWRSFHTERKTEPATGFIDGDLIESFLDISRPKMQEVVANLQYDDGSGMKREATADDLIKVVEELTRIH
Summary of the method: (§1)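 hPBMCs (1×10^6 cells/mL) were treated with compound at 50 nM and 500 nM for 24 h, lysed in RIPA with protease inhibitors and analysed by SDS-PAGE/Western blot. Band grayscale, normalised to internal control, gave protein remaining (%); DC50 estimated versus DMSO bands.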

[2] = target: T2, IKZF2 (Homo sapiens, UniProt Q96SW2+Q9UKS7); assay: Western blot degradation of IKZF2 in hPBMCs (24 h)
T2 construct: The supernatant was aspirated as the extracted total cell protein; endogenous in cells; host or cells: human peripheral blood mononuclear cells (hPBMCs)
T2 sequence (Q9UKS7 whole entry): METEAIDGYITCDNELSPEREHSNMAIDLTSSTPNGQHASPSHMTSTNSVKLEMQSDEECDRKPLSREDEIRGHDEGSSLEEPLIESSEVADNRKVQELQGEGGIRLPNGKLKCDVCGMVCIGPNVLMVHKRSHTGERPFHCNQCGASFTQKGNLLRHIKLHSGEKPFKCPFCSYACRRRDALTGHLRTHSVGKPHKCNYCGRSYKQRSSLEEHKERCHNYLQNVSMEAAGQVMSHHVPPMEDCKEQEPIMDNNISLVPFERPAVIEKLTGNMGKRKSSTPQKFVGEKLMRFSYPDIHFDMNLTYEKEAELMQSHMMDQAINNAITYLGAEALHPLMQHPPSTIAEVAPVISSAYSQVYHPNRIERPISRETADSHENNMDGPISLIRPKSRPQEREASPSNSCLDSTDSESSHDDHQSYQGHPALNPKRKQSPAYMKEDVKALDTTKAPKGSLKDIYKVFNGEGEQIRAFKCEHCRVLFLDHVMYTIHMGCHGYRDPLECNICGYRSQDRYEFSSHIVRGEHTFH
T2 sequence (Q96SW2 whole entry): as the sequence (Q96SW2 whole entry) above
T2 sequence (Q16531 whole entry partner): as the sequence (Q16531 whole entry partner) above
Summary of the method: as §1

[3] = target: T3, IKZF3 (Homo sapiens, UniProt Q96SW2+Q9UKT9); assay: Western blot degradation of IKZF3 in hPBMCs (24 h)
T3 construct: The supernatant was aspirated as the extracted total cell protein; endogenous in cells; host or cells: human peripheral blood mononuclear cells (hPBMCs)
Summary of the method: as §1

[4] = target: T4, WEE1 (Homo sapiens, UniProt P30291+Q96SW2); assay: Western blot degradation of WEE1 in hPBMCs (24 h)
T4 construct: The supernatant was aspirated as the extracted total cell protein; endogenous in cells; host or cells: human peripheral blood mononuclear cells (hPBMCs)
T4 sequence (P30291 whole entry): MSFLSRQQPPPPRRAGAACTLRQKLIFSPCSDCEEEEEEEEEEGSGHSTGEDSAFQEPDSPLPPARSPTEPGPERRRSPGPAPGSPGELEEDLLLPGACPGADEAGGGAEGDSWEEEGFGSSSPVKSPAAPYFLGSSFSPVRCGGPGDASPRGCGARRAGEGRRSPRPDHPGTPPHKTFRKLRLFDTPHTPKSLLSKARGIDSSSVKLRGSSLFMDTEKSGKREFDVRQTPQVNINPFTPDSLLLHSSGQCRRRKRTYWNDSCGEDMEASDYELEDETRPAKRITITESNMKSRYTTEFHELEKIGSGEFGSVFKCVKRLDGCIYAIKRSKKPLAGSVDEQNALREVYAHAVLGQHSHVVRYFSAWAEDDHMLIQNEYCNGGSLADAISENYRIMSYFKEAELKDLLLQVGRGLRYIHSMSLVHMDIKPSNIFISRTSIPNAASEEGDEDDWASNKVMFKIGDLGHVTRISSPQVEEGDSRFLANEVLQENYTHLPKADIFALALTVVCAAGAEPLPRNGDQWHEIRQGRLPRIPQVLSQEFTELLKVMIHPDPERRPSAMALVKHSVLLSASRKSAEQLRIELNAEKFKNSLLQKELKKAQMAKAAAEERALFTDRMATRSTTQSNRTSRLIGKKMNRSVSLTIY
T4 sequence (Q96SW2 whole entry): as the sequence (Q96SW2 whole entry) above
T4 sequence (Q16531 whole entry partner): as the sequence (Q16531 whole entry partner) above
Summary of the method: as §1

[5] = target: T5, IKZF1 (Homo sapiens, UniProt Q13422+Q96SW2); assay: Western blot degradation of IKZF1 in hPBMCs (24 h)
T5 construct: The supernatant was aspirated as the extracted total cell protein; endogenous in cells; host or cells: human peripheral blood mononuclear cells (hPBMCs)
T5 sequence (Q13422 whole entry): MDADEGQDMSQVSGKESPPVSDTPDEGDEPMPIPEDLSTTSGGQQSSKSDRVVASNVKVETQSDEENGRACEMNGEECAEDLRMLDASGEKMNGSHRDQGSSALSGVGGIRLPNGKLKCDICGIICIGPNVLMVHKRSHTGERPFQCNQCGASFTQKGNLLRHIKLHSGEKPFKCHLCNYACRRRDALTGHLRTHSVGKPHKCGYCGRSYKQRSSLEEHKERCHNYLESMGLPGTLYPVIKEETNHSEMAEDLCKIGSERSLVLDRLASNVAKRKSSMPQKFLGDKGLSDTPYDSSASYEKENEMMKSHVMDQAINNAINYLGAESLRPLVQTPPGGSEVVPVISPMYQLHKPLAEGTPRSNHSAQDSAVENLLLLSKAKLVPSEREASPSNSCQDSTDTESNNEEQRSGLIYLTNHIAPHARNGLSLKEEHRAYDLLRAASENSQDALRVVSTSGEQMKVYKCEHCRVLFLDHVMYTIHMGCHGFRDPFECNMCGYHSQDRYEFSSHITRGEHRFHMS
T5 sequence (Q96SW2 whole entry): as the sequence (Q96SW2 whole entry) above
T5 sequence (Q16531 whole entry partner): as the sequence (Q16531 whole entry partner) above
Summary of the method: as §1

[6] = target: T6, GSPT1 (Homo sapiens, UniProt P15170+Q96SW2); assay: Western blot degradation of GSPT1 in hPBMCs (24 h)
T6 construct: The supernatant was aspirated as the extracted total cell protein; endogenous in cells; host or cells: human peripheral blood mononuclear cells (hPBMCs)
T6 sequence (P15170 whole entry): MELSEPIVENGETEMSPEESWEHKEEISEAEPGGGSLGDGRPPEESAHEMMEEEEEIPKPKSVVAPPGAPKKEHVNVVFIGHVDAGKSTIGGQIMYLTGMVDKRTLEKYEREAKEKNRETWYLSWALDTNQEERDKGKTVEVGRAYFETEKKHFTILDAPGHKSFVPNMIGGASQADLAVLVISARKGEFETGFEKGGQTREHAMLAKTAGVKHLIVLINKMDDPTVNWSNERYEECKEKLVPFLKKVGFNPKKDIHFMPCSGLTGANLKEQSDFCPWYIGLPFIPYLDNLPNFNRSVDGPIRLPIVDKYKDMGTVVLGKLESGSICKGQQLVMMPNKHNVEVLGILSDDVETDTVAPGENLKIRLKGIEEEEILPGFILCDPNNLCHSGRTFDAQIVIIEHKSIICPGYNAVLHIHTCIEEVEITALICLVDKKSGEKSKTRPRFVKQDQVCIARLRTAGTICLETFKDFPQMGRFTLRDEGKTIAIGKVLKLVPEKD
T6 sequence (Q96SW2 whole entry): as the sequence (Q96SW2 whole entry) above
T6 sequence (Q16531 whole entry partner): as the sequence (Q16531 whole entry partner) above
Summary of the method: as §1

SMILES	CK1α substrate protein remaining % [1]	IKZF2 substrate protein remaining % [2]	IKZF3 substrate protein remaining % [3]	WEE1 substrate protein remaining % [4]	IKZF1 substrate protein remaining % [5]	GSPT1 substrate protein remaining % [6]
O=C1CCN(N2Cc3cc(CN4CCN(c5ncnc6sc7c(c56)CCC7)CC4)ccc3C2=O)C(=O)N1 [GT-08079, 1-(5-((4-(6,7-dihydro-5H-cyclopenta[4,5]thieno[2,3-d]pyrimidin-4-yl)piperazin-1-yl)methyl)-1-oxoisoindolin-2-yl)dihydropyrimidine-2,4(1H,3H)-dione]	A (0% ≤ substrate protein remaining % ≤80%)	B (80%< substrate protein remaining % ≤100%)	B (80%< substrate protein remaining % ≤100%)	A (0% ≤ substrate protein remaining % ≤80%)	B (80%< substrate protein remaining % ≤100%)	A (0% ≤ substrate protein remaining % ≤80%)
C[C@@H]1CN(C(c2ccccc2)c2ccccc2)CCN1Cc1ccc2c(c1)CN(N1CCC(=O)NC1=O)C2=O [GT-06448, (R)-1-(5-((4-benzhydryl-2-methylpiperazin-1-yl)methyl)-1-oxoisoindolin-2-yl)dihydropyrimidine-2,4(1H,3H)-dione]	B (80%< substrate protein remaining % ≤100%)	A (0% ≤ substrate protein remaining % ≤80%)	A (0% ≤ substrate protein remaining % ≤80%)	B (80%< substrate protein remaining % ≤100%)	B (80%< substrate protein remaining % ≤100%)	A (0% ≤ substrate protein remaining % ≤80%)
O=C1CCN(N2C(=O)c3ccc(CN4CCN(c5ncncn5)CC4)cc3C2=O)C(=O)N1 [GT-07037, 5-((4-(1,3,5-triazin-2-yl)piperazin-1-yl)methyl)-2-(2,4-dioxotetrahydropyrimidin-1(2H)-yl)isoindoline-1,3-dione]	B (80%< substrate protein remaining % ≤100%)	B (80%< substrate protein remaining % ≤100%)	B (80%< substrate protein remaining % ≤100%)	B (80%< substrate protein remaining % ≤100%)	B (80%< substrate protein remaining % ≤100%)	A (0% ≤ substrate protein remaining % ≤80%)
O=C1CCN(N2Cc3cc(CN4CCN(C(c5ccccc5)c5cccnc5)CC4)ccc3C2=O)C(=O)N1 (stereo not drawn) [GT-06376, 1-(1-oxo-5-((4-(phenyl(pyridin-3-yl)methyl)piperazin-1-yl)methyl)isoindolin-2-yl)dihydropyrimidine-2,4(1H,3H)-dione]	B (80%< substrate protein remaining % ≤100%)	A (0% ≤ substrate protein remaining % ≤80%)	B (80%< substrate protein remaining % ≤100%)	A (0% ≤ substrate protein remaining % ≤80%)	B (80%< substrate protein remaining % ≤100%)	A (0% ≤ substrate protein remaining % ≤80%)
O=C1CCN(N2Cc3cc(CN4CCN(c5c(Cl)cncc5Cl)CC4)ccc3C2=O)C(=O)N1 [GT-07032, 1-(5-((4-(3,5-dichloropyridin-4-yl)piperazin-1-yl)methyl)-1-oxoisoindolin-2-yl)dihydropyrimidine-2,4(1H,3H)-dione]	B (80%< substrate protein remaining % ≤100%)	B (80%< substrate protein remaining % ≤100%)	B (80%< substrate protein remaining % ≤100%)	B (80%< substrate protein remaining % ≤100%)	B (80%< substrate protein remaining % ≤100%)	A (0% ≤ substrate protein remaining % ≤80%)
O=C1CCN(N2Cc3cc(CN4CCC(c5ccoc5)CC4)ccc3C2=O)C(=O)N1 [GT-07375, 1-(5-((4-(furan-3-yl)piperidin-1-yl)methyl)-1-oxoisoindolin-2-yl)dihydropyrimidine-2,4(1H,3H)-dione]	A (0% ≤ substrate protein remaining % ≤80%)	B (80%< substrate protein remaining % ≤100%)	B (80%< substrate protein remaining % ≤100%)	B (80%< substrate protein remaining % ≤100%)	B (80%< substrate protein remaining % ≤100%)	A (0% ≤ substrate protein remaining % ≤80%)
O=C1CCN(N2C(=O)c3ccc(CN4CCN(c5ccc(F)c(F)c5)CC4)cc3C2=O)C(=O)N1 [GT-06797, 5-((4-(3,4-difluorophenyl)piperazin-1-yl)methyl)-2-(2,4-dioxotetrahydropyrimidin-1(2H)-yl)isoindoline-1,3-dione]	B (80%< substrate protein remaining % ≤100%)	B (80%< substrate protein remaining % ≤100%)	B (80%< substrate protein remaining % ≤100%)	A (0% ≤ substrate protein remaining % ≤80%)	B (80%< substrate protein remaining % ≤100%)	B (80%< substrate protein remaining % ≤100%)
O=C1CCN(N2C(=O)c3ccc(CN4CCC(N5CCCc6cc(F)ccc65)CC4)cc3C2=O)C(=O)N1 [GT-07681, 2-(2,4-dioxotetrahydropyrimidin-1(2H)-yl)-5-((4-(6-fluoro-3,4-dihydroquinolin-1(2H)-yl)piperidin-1-yl)methyl)isoindoline-1,3-dione]	B (80%< substrate protein remaining % ≤100%)	B (80%< substrate protein remaining % ≤100%)	B (80%< substrate protein remaining % ≤100%)	B (80%< substrate protein remaining % ≤100%)	A (0% ≤ substrate protein remaining % ≤80%)	A (0% ≤ substrate protein remaining % ≤80%)
Cc1cc(N2CCN(Cc3ccc4c(c3)CN(N3CCC(=O)NC3=O)C4=O)CC2)ccn1 [GT-05438, 1-(5-((4-(2-methylpyridin-4-yl)piperazin-1-yl)methyl)-1-oxoisoindolin-2-yl)dihydropyrimidine-2,4(1H,3H)-dione]	A (0% ≤ substrate protein remaining % ≤80%)	B (80%< substrate protein remaining % ≤100%)	A (0% ≤ substrate protein remaining % ≤80%)	A (0% ≤ substrate protein remaining % ≤80%)	A (0% ≤ substrate protein remaining % ≤80%)	A (0% ≤ substrate protein remaining % ≤80%)
O=C1CCN(N2Cc3cc(CN4CCN(c5cccs5)CC4)ccc3C2=O)C(=O)N1 [GT-05073, 1-(1-oxo-5-((4-(thiophen-2-yl)piperazin-1-yl)methyl)isoindolin-2-yl)dihydropyrimidine-2,4(1H,3H)-dione]	B (80%< substrate protein remaining % ≤100%)	B (80%< substrate protein remaining % ≤100%)	A (0% ≤ substrate protein remaining % ≤80%)	B (80%< substrate protein remaining % ≤100%)	B (80%< substrate protein remaining % ≤100%)	B (80%< substrate protein remaining % ≤100%)
